Here are results for three compounds from patent US20230059009A1, “INHIBITORS OF LIN28 AND METHODS OF USE THEREOF” (The Regents of the University of California, priority 2019, published 2023).

The target of one data set is T1, CYP 1A2 (Homo sapiens, UniProt P05177).
T1 sequence (P05177 1-516): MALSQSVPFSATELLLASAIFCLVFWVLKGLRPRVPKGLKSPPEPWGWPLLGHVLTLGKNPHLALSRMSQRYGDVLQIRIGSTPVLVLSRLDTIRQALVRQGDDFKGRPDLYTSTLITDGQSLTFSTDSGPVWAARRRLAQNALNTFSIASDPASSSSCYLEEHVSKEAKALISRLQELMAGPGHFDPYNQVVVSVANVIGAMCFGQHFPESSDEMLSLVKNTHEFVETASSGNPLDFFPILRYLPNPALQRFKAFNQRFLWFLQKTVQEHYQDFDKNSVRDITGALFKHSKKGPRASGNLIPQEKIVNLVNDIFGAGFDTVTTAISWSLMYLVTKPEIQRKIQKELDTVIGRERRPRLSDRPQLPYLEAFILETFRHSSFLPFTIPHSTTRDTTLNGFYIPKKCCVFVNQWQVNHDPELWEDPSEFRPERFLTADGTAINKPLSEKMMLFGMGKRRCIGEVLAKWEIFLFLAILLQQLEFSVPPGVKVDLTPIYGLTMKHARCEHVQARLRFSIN
Briefly: CYP inhibition 1A2. The arrangement: unit not given here. The format is in vitro ADME. The note with it: Conc. 30 uM.

The next data set deals with T2, CYP 2C8 (Homo sapiens, UniProt P10632).
T2 sequence (P10632 1-490): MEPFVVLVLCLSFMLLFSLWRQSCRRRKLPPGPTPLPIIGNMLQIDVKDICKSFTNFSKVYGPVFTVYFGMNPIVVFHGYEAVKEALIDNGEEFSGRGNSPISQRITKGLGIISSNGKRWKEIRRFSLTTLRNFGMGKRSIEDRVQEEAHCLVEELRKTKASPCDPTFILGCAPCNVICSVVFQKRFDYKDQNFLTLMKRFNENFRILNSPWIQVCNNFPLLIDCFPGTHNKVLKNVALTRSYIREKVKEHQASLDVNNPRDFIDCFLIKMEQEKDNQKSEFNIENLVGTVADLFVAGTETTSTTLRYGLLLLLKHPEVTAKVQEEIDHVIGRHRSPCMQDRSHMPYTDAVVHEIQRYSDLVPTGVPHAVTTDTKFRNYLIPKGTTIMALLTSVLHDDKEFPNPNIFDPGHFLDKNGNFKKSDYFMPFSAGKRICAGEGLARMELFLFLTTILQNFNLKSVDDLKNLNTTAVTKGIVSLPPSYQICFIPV
Nature of the data set: CYP inhibition 2C8. It counts as in vitro ADME. The arrangement: unit not given here. Conditions: Conc. 30 uM.

Data set [1] has as its target T3, LIN28B/pre-let-7a-2 binding (Homo sapiens, UniProt Q6ZN17).
T3 construct: made in house; host or cells: stably transduced HEK cells; used as diluted protein lysate, not purified
T3 sequence (Q6ZN17 1-250): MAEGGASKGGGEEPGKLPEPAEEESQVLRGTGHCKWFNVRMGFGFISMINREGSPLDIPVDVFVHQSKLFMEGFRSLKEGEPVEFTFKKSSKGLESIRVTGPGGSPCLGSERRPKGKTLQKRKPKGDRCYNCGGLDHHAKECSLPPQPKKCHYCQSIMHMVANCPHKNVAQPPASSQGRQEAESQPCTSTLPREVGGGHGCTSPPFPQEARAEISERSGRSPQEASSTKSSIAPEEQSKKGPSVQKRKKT
Nature of the data set: FRET assay, EGFP-tagged LIN28B and BHQ-1 labelled pre-let-7a-2. The note with it: doses 1.25 uM-20 uM; compared with LN1632. Put shortly: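 Lysate of HEK cells stably expressing LIN28B-EGFP, diluted in binding buffer (300 mM NaCl, 25 mM HEPES pH 7.2, 10 μM ZnCl2, 0.05% Tween 20, 0.5 mM TCEP), was pre-incubated 20 min with compound at 1.25–20 uM. Pre-let-7a-2-BHQ1 was added at 6.25 nM, and EGFP donor quenching was measured (excitation 488 nm, emission 545 nm).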

The next data set deals with H1568. Nature of the data set: Cell viability, MTT assay, H1568. The format is cell-based. The procedure:
(§1) To measure cell viability, cell titer glow (CTG, Promega CellTiter-Glo 2.0 Assay) and MTT assays (SigmaAldrich, Cell Proliferation Kit I) were performed. Briefly, cells were serum starved overnight prior to seeding in 96-well plates. Following 24 h incubation, cells were treated with increasing concentrations of JGJ compounds for 96 hr. At assay read-out, CellTiter-Glo reagent was added and luminescence was measured after 10-minutes incubation at room temperature. For the MTT assay, MTT labeling reagent was added and incubated for 4 h. Subsequently, medium was removed and 50 μL DMSO was added to solubilize the crystals, and absorbance was measured at 570 nm. Cell viability was calculated as (Sample-Background)/(Control-Background). Current standard of care drugs, Enzalutamide, Palbociclib and Cetuximab were used as comparative controls.
In general terms: Tetrazolium dyes change colour on reduction, which living cells bring about.

A further data set addresses CYP 2C19 (Homo sapiens, UniProt P33261). Nature of the data set: CYP inhibition 2C19. The format is in vitro ADME. Details: unit not given here. Conditions: Conc. 30 uM.
Another data set relates to MOLM-13 (no LIN28B). Nature of the data set: Subcutaneous MOLM-13 AML xenograft. The format is in vivo. The note with it: MOLM-13 subQ in NSG mice, 100 mg/kg IP every other day.
The next data set relates to MYC-driven cancers. Nature of the data set: Cell viability and cell counting assays in cancer cells. It counts as cell-based. The note with it: TNBC, CRPC, lung and colorectal adenocarcinoma cells. The procedure: To test whether LN1632 and novel analogs thereof affect cancer cell growth, cell viability and cell counting assays in TNBC (FIG. 14B-D), castration resistant prostate cancer cells (CRPC, FIG. 15A-C) and colorectal cancer cells (CRC, FIG. 15A-C) were performed.
as §1

“Also recorded” adds a separate entry of the source.

Sequence of CYP 2C19 (P33261 whole entry): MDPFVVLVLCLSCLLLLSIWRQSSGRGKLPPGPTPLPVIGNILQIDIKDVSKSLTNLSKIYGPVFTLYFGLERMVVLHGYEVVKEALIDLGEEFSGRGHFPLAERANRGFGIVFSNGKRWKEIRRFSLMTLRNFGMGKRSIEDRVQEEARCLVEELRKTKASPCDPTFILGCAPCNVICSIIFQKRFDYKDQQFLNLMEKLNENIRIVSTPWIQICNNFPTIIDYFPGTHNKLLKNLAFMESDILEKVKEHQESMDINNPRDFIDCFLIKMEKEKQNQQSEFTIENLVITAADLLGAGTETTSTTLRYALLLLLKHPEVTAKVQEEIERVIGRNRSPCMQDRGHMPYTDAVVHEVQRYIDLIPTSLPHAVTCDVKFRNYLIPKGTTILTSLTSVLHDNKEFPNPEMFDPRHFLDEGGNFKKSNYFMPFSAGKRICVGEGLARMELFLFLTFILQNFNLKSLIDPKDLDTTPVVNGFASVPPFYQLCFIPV
Experimental for MOLM-13 (no LIN28B): Thus, we subcutaneously (subQ) implanted THP-1 (high LIN28B) cells or MOLM-13 (no LIN28B) into NSG mice and 12 d later (tumor size=40 mm^2) started administration of 1632 IP at 100 mg/kg every other day.

Regarding `CC(=O)Nc1cccc(-c2ccc3ncc(C)n3n2)c1` [JGJ007, N-(3-(3-Methylimidazo[1,2-b]pyridazin-6-yl)phenyl)acetamide], the “CYP inhibition 1A2” value at CYP 1A2 was 97.3. The “CYP inhibition 2C8” value at CYP 2C8 came out at 19.11. Besides, in data set [1], the “Inhibition of LIN28B binding to pre-let-7a (FRET signal)” value is on record as “greater inhibition of the LIN28B/pre-let-7a2 binding than the original compound LN1632”. In the data set with H1568 (NCI-H1568, H1568 (Lung)), the IC50 – broadly, the midpoint of a concentration-inhibition curve – is 47 µM. Also, on CYP 2C19, the “CYP inhibition 2C19” value came to 37.08.
With `Cc1cnc2ccc(-c3cccc(F)c3)nn12` [JGJ015, 6-(3-Fluorophenyl)-3-methylimidazo[1,2-b]pyridazine], the “CYP inhibition 1A2” value at CYP 1A2 was determined as 96.4. Besides, at CYP 2C8, the “CYP inhibition 2C8” value is listed as 17.82. Besides, the “CYP inhibition 2C19” value on CYP 2C19 is listed as 49.8.
As to `CC(=O)N(C)c1cccc(-c2ccc3nnc(C)n3n2)c1` [LN1632], in the data set on MOLM-13 (no LIN28B), the Tumor growth entry is “minimal effect on tumor growth; also recorded: significantly reduced tumor growth in THP-1 but not MOLM-13”. The IC50 in the data set with H1568 (H1568 (Lung)) came out at 128 µM. Besides, in the data set with MYC-driven cancers, the “Proliferation and apoptosis of cancer cells” value is “reduced proliferation and induced apoptosis preferentially in MYC-driven cancers”.
